Laboratory results taken from PMC6429214, “Design, Synthesis and Biological Evaluation of Isoxazole-Based CK1 Inhibitors Modified with Chiral Pyrrolidine Scaffolds” (Molecules, 2019).

Experiments:
Assay in all cases: 33PanQinase panel
Assay type in all cases: biochemical
AKT1 aa106-480 = target: T1, AKT1 aa106-480 (Homo sapiens, UniProt P31749); conditions: AKT1 aa106-480, 1 µM; read-out: Residual Activity (%)
T1 construct: purchased ProQinase
How it was run: (§1)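 Residual activity (%) relative to DMSO control was measured by radiometric 33P-based kinase activity assay with inhibitor at 1 µM and 1% final DMSO, across 320 wild-type kinases.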

AKT2 aa107-481 = target: T2, AKT2 aa107-481 (Homo sapiens, UniProt P31751); conditions: AKT2 aa107-481, 1 µM; read-out: Residual Activity (%)
T2 construct: purchased ProQinase
How it was run: as §1

CDK5/p35NCK = target: T3, CDK5/p35NCK (Homo sapiens, UniProt Q00535); conditions: read-out: Residual Activity (%)
T3 construct: purchased ProQinase
T3 sequence (Q00535 whole entry): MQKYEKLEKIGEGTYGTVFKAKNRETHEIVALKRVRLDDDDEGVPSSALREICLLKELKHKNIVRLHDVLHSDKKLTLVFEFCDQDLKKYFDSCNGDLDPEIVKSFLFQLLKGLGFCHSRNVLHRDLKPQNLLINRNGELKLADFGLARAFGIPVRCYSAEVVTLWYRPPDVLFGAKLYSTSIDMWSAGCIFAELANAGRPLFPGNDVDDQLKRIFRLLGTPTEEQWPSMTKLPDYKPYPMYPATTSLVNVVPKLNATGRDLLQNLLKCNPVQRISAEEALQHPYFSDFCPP
T3 sequence (Q15078 whole entry partner): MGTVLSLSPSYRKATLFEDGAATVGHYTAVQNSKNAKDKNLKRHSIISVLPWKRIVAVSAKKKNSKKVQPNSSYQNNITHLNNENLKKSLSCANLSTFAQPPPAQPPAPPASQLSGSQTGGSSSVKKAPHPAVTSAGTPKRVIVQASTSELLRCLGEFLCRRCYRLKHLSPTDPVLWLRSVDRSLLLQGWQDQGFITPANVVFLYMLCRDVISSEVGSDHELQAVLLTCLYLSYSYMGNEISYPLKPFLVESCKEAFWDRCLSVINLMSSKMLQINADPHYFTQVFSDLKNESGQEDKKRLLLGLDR
How it was run: as §1

CHK1 = target: T4, CHK1 (Homo sapiens, UniProt O14757); conditions: CHK1, 1 µM; read-out: Residual Activity (%)
T4 construct: purchased ProQinase
How it was run: as §1

CK1-delta = target: T5, CK1-delta (Homo sapiens, UniProt P48730); conditions: read-out: Residual Activity (%)
T5 construct: purchased ProQinase
How it was run: as §1

CK2-alpha1 = target: T6, CK2-alpha1 (Homo sapiens, UniProt P68400); conditions: CK2-alpha1, 1 µM; read-out: Residual Activity (%)
T6 construct: purchased ProQinase
T6 sequence (P68400 whole entry): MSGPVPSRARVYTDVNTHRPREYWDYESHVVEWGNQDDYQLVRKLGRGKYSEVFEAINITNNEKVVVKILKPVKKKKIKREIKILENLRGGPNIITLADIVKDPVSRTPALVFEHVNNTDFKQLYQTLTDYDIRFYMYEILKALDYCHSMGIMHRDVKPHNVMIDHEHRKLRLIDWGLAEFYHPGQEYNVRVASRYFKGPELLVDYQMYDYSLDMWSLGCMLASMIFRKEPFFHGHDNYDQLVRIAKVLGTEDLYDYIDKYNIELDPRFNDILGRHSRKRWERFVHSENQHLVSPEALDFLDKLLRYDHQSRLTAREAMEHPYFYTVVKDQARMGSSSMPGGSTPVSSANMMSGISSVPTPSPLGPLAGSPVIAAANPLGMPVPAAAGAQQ
How it was run: as §1

DAPK3 = target: T7, DAPK3 (Homo sapiens, UniProt O43293); conditions: DAPK3, 1 µM; read-out: Residual Activity (%)
T7 construct: purchased ProQinase
How it was run: as §1

EPHB1 = target: T8, EPHB1 (Homo sapiens, UniProt P54762); conditions: EPHB1, 1 µM; read-out: Residual Activity (%)
T8 construct: purchased ProQinase
How it was run: as §1

FGF-R4 = target: T9, FGF-R4 (Homo sapiens, UniProt P22455); conditions: FGF-R4, 1 µM; read-out: Residual Activity (%)
T9 construct: purchased ProQinase
How it was run: as §1

FGR = target: T10, FGR (Homo sapiens, UniProt P09769); conditions: read-out: Residual Activity (%)
T10 construct: purchased ProQinase
How it was run: as §1

GRK6 = target: T11, GRK6 (Homo sapiens, UniProt P43250); conditions: GRK6, 1 µM; read-out: Residual Activity (%)
T11 construct: purchased ProQinase
How it was run: as §1

IGF1-R = target: T12, IGF1-R (Homo sapiens, UniProt P08069); conditions: read-out: Residual Activity (%)
T12 construct: purchased ProQinase
How it was run: as §1

JAK3 = target: T13, JAK3 (Homo sapiens, UniProt P52333); conditions: JAK3, 1 µM; read-out: Residual Activity (%)
T13 construct: purchased ProQinase
How it was run: as §1

MAP4K4 = target: T14, MAP4K4 (Homo sapiens, UniProt O95819); conditions: MAP4K4, 1 µM; read-out: Residual Activity (%)
T14 construct: purchased ProQinase
How it was run: as §1

MEK5 = target: T15, MEK5 (Homo sapiens, UniProt Q13163); conditions: MEK5, 1 µM; read-out: Residual Activity (%)
T15 construct: purchased ProQinase
How it was run: as §1

MLK4 = target: T16, MLK4 (Homo sapiens, UniProt Q5TCX8); conditions: MLK4, 1 µM; read-out: Residual Activity (%)
T16 construct: purchased ProQinase
T16 sequence (Q5TCX8 whole entry): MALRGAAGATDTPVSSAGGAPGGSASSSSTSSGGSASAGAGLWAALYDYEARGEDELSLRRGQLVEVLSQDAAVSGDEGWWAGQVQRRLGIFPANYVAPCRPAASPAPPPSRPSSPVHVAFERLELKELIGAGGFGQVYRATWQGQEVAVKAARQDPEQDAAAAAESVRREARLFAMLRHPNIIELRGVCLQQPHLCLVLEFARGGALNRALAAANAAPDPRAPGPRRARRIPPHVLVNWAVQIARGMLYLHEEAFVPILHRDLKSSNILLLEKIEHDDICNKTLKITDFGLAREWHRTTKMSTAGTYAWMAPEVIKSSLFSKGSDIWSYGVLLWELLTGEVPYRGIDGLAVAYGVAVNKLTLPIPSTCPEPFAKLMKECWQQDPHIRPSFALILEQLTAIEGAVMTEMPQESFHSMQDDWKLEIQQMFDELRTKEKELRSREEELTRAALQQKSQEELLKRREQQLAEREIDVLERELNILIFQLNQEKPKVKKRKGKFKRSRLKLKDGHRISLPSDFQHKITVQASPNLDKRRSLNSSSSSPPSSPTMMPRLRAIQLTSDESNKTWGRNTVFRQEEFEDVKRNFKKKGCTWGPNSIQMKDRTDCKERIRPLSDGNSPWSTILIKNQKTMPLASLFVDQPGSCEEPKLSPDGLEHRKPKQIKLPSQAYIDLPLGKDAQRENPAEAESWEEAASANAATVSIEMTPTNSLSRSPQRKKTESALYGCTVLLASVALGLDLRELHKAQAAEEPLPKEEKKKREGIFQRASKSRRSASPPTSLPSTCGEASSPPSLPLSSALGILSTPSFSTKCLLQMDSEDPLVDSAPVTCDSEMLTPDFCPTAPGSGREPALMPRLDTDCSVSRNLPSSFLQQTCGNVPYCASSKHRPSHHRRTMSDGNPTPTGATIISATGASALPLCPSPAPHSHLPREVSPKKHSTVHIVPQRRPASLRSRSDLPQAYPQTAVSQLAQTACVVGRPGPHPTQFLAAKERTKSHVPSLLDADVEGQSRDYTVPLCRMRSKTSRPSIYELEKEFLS
How it was run: as §1

PBK = target: T17, PBK (Homo sapiens, UniProt Q96KB5); conditions: read-out: Residual Activity (%)
T17 construct: purchased ProQinase
How it was run: as §1

PDK1 = target: T18, PDK1 (Homo sapiens, UniProt O15530); conditions: PDK1, 1 µM; read-out: Residual Activity (%)
T18 construct: purchased ProQinase
How it was run: as §1

PKC-gamma = target: T19, PKC-gamma (Homo sapiens, UniProt P05129); conditions: read-out: Residual Activity (%)
T19 construct: purchased ProQinase
How it was run: as §1

PLK1 = target: T20, PLK1 (Homo sapiens, UniProt P53350); conditions: PLK1, 1 µM; read-out: Residual Activity (%)
T20 construct: purchased ProQinase
T20 sequence (P53350 whole entry): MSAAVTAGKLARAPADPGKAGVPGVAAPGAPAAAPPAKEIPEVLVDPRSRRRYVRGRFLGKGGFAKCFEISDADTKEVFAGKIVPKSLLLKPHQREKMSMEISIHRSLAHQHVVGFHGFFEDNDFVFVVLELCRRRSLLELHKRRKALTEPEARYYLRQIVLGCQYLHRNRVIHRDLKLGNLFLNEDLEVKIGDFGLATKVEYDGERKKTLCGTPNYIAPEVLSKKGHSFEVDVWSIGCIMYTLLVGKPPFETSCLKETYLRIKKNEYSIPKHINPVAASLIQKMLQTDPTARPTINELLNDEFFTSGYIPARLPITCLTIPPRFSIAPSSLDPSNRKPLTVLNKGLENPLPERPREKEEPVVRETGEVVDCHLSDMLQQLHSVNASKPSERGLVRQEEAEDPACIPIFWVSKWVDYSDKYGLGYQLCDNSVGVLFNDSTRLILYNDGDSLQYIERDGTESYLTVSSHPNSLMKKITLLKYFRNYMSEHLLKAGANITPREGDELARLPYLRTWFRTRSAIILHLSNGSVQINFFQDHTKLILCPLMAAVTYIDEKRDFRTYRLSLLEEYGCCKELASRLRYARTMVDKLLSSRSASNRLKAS
How it was run: as §1

PRKX = target: T21, PRKX (Homo sapiens, UniProt P51817); conditions: read-out: Residual Activity (%)
T21 construct: purchased ProQinase
How it was run: as §1

[1] = target: T22, RAF1 Y340D/Y341D (untagged)** (Homo sapiens, UniProt P04049, Y340D/Y341D); conditions: read-out: Residual Activity (%)
T22 construct: purchased ProQinase
How it was run: as §1

RPS6KA1 = target: T23, RPS6KA1 (Homo sapiens, UniProt Q15418); conditions: RPS6KA1, 1 µM; read-out: Residual Activity (%)
T23 construct: purchased ProQinase
How it was run: as §1

STK25 = target: T24, STK25 (Homo sapiens, UniProt O00506); conditions: STK25, 1 µM; read-out: Residual Activity (%)
T24 construct: purchased ProQinase
How it was run: as §1

STK39 = target: T25, STK39 (Homo sapiens, UniProt Q9UEW8); conditions: STK39, 1 µM; read-out: Residual Activity (%)
T25 construct: purchased ProQinase
How it was run: as §1

SYK aa1-635 = target: T26, SYK aa1-635 (Homo sapiens, UniProt P43405); conditions: SYK aa1-635, 1 µM; read-out: Residual Activity (%)
T26 construct: purchased ProQinase
How it was run: as §1

TBK1 = target: T27, TBK1 (Homo sapiens, UniProt Q9UHD2); conditions: TBK1, 1 µM; read-out: Residual Activity (%)
T27 construct: purchased ProQinase
How it was run: as §1

TEC = target: T28, TEC (Homo sapiens, UniProt P42680); conditions: read-out: Residual Activity (%)
T28 construct: purchased ProQinase
T28 sequence (P42680 whole entry): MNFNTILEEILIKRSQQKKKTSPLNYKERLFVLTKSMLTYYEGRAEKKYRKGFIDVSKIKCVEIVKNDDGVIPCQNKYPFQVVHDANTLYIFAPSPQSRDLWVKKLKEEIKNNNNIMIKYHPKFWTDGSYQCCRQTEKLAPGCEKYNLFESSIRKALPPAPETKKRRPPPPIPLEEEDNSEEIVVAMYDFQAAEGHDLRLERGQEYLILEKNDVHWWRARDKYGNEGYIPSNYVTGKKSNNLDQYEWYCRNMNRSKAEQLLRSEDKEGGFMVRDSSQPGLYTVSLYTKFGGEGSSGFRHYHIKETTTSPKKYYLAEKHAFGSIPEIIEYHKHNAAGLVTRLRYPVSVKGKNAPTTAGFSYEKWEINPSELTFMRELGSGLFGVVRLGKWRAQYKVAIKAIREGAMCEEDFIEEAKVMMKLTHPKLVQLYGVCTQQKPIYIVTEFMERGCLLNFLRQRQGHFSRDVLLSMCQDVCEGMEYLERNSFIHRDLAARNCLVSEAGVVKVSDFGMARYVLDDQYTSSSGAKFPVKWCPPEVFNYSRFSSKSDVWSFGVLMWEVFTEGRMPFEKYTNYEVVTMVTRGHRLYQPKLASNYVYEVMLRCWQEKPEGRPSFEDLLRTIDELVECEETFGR
How it was run: as §1

VRK2 = target: T29, VRK2 (Homo sapiens, UniProt Q86Y07); conditions: VRK2, 1 µM; read-out: Residual Activity (%)
T29 construct: purchased ProQinase
T29 sequence (Q86Y07 whole entry): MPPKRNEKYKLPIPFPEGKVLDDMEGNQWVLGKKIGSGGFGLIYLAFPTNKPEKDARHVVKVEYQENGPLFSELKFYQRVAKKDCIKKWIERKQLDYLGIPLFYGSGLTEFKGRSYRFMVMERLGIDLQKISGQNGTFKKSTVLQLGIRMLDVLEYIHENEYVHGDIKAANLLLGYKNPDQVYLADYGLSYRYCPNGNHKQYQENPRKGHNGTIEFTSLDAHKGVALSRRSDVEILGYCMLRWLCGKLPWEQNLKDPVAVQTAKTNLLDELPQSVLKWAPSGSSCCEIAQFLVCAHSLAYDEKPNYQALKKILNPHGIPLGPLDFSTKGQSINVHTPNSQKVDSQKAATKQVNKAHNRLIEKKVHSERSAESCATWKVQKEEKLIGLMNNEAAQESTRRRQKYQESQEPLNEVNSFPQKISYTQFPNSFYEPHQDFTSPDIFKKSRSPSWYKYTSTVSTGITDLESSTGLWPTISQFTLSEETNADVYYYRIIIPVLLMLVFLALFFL
How it was run: as §1

T1 sequence (P31749 106-480 limits assumed): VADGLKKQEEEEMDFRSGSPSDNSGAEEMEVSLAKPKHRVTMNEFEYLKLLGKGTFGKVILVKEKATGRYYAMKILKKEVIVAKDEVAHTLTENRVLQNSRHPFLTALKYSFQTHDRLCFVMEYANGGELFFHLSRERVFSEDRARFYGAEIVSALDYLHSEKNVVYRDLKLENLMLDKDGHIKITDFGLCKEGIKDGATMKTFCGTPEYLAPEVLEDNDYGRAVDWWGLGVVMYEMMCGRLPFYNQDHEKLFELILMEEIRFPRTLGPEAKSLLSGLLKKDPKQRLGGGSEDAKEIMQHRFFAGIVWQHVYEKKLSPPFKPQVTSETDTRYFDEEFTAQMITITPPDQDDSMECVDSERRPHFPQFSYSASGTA

COc1ccc(-c2cc(C(=O)Nc3cc(-c4c(-c5ccc(F)cc5)noc4C(C)C)ccn3)n(CC3NCC(O)C3O)c2)cc1 (centres unmarked) [29d]
remaining activity at 1 µM (AKT1 aa106-480): 84%
remaining activity at 1 µM (AKT2 aa107-481): 107%
remaining activity at 1 µM (CDK5/p35NCK): 100%
remaining activity at 1 µM (CHK1): 97%
remaining activity at 1 µM (CK1-delta): 1%
remaining activity at 1 µM (CK2-alpha1): 103%
remaining activity at 1 µM (DAPK3): 90%
remaining activity at 1 µM (EPHB1): 108%
remaining activity at 1 µM (FGF-R4): 125%
remaining activity at 1 µM (FGR): 107%
remaining activity at 1 µM (GRK6): 101%
remaining activity at 1 µM (IGF1-R): 104%
remaining activity at 1 µM (JAK3): 81%
remaining activity at 1 µM (MAP4K4): 83%
remaining activity at 1 µM (MEK5): 110%
remaining activity at 1 µM (MLK4): 112%
remaining activity at 1 µM (PBK): 89%
remaining activity at 1 µM (PDK1): 93%
remaining activity at 1 µM (PKC-gamma): 112%
remaining activity at 1 µM (PLK1): 98%
remaining activity at 1 µM (PRKX): 92%
remaining activity at 1 µM [1]: 103%
remaining activity at 1 µM (RPS6KA1): 84%
remaining activity at 1 µM (STK25): 98%
remaining activity at 1 µM (STK39): 110%
remaining activity at 1 µM (SYK aa1-635): 148%
remaining activity at 1 µM (TBK1): 113%
remaining activity at 1 µM (TEC): 109%
remaining activity at 1 µM (VRK2): 92%
